According to ChEMBL document CHEMBL1143776, “Thioimidoyl furanosides as first inhibitors of the alpha-L-arabinofuranosidase AbfD3” (Bioorg Med Chem Lett, 2007):

Assay: Inhibition of AbfD3

IC50 [µM]	Compound
< 100	OC[C@@H]1O[C@@H](Sc2nc3ccccc3s2)[C@H](O)[C@H]1O
< 100	OC[C@@H]1O[C@@H](Sc2ccccn2)[C@H](O)[C@H]1O
< 100	OC[C@@H]1O[C@@H](Sc2ncccn2)[C@H](O)[C@H]1O
< 100	OC[C@@H]1O[C@@H](Sc2nccs2)[C@H](O)[C@H]1O
< 100	OC[C@@H]1O[C@@H](Sc2nc3ccccc3[nH]2)[C@H](O)[C@H]1O
